Results taken from US10709758B2 (priority 2015, dated 2020).

Target: TcdB1 (Clostridioides difficile, UniProt P18177)
Sequence (P18177 2-2366 limits assumed): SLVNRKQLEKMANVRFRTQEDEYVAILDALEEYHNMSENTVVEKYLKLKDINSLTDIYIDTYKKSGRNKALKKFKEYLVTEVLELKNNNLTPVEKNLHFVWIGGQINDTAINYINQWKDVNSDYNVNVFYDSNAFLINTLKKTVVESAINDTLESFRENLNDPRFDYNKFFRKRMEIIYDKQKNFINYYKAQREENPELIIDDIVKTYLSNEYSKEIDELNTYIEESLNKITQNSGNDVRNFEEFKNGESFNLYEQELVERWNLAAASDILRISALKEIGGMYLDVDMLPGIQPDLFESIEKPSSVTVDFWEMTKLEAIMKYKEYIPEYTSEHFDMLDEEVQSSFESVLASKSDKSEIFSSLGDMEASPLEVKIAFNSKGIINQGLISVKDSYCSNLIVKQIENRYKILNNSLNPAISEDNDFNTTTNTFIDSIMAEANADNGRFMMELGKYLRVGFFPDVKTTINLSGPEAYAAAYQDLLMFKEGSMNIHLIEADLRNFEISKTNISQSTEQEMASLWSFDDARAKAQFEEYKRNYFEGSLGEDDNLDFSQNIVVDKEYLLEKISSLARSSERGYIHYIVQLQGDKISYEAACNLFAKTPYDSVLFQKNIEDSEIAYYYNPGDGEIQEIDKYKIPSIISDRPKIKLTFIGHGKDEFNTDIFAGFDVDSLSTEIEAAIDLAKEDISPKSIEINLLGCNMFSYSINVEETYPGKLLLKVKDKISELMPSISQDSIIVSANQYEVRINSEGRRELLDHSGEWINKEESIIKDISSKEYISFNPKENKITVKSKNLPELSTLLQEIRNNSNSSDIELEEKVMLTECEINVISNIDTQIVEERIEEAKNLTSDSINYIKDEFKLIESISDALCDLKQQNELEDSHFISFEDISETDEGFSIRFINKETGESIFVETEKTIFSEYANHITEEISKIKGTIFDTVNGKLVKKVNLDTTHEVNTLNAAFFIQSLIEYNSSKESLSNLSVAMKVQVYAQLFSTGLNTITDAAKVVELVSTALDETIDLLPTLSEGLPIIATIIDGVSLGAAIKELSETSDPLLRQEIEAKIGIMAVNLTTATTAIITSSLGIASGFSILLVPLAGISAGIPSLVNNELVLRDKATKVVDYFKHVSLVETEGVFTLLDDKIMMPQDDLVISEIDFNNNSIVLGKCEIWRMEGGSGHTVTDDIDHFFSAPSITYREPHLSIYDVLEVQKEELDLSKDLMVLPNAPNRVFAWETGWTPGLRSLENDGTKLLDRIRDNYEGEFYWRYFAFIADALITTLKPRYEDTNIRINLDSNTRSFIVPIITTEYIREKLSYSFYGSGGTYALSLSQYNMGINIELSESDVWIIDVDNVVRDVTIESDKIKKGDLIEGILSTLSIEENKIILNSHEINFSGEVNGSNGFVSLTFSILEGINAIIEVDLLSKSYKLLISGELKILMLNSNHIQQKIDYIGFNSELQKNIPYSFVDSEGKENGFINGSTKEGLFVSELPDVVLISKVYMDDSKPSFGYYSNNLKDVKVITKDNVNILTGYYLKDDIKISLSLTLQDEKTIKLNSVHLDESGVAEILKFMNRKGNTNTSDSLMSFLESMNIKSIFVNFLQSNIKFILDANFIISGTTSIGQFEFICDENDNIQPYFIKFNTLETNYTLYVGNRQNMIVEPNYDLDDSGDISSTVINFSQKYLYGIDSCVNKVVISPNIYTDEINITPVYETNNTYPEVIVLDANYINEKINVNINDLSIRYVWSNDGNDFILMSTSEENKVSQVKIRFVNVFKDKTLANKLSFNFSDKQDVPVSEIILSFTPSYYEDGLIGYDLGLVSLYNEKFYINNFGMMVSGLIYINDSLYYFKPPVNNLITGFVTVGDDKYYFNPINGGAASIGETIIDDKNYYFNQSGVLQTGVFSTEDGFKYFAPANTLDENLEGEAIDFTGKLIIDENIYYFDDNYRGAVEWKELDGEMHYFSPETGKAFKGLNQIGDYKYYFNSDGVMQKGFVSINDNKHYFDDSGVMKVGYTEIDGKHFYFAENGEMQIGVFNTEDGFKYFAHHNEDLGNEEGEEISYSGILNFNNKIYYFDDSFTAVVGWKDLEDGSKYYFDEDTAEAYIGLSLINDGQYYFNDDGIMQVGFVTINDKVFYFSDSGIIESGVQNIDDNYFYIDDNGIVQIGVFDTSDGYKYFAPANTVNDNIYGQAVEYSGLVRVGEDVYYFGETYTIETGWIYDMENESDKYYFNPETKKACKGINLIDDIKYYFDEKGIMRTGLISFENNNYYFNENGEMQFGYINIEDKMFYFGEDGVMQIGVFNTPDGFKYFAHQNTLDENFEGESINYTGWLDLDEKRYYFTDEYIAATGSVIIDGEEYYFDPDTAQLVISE

Structure (SMILES): CC[C@H](C)[C@H](NC(=O)[C@H](CCCCN)NC(=O)[C@H](CC(=O)O)NC(=O)[C@H](CO)NC(=O)[C@@H](NC(=O)[C@@H](NC(=O)[C@H](CC(N)=O)NC(=O)CNC(=O)[C@H](CCCCN)NC(=O)[C@H](Cc1ccccc1)NC(=O)[C@@H](NC(=O)[C@@H](N)CC(N)=O)C(C)C)[C@@H](C)O)[C@@H](C)CC)C(=O)N[C@@H](CO)C(=O)N[C@@H](Cc1ccccc1)C(=O)N[C@@H](CC(N)=O)C(=O)N[C@@H](Cc1ccccc1)C(=O)N[C@@H](CO)C(=O)N[C@@H](CC(=O)O)C(=O)N[C@@H](CCCCN)C(=O)O [PepB2]
- increase of the 50% toxic concentration (TC50) of TcdB1: 500 fold
- protection from cytotoxicity of TcdB1 over a range of toxin concentrations: protects CHO-K1 cells
